According to patent US10278957B2, “Opioid agonist peptides and uses thereof” (Protagonist Therapeutics, Inc., priority 2017, dated 2019):
Square brackets hold non-standard residues; d marks the D form. Peptide text beside a SMILES is read from it. Phe(3,4-(OMe)2) = COc1ccc(C[C@H](N)C(=O)O)cc1OC; Phe(3,4-Cl2) = N[C@@H](Cc1ccc(Cl)c(Cl)c1)C(=O)O; Phe(4-tBu) = CC(C)(C)c1ccc(C[C@H](N)C(=O)O)cc1; Bip = N[C@@H](Cc1ccc(-c2ccccc2)cc1)C(=O)O; Dip = N[C@H](C(=O)O)C(c1ccccc1)c1ccccc1; Phe(4-F) = N[C@@H](Cc1ccc(F)cc1)C(=O)O; Dmt = Cc1cc(O)cc(C)c1C[C@H](N)C(=O)O; dNMeF = CN[C@H](Cc1ccccc1)C(=O)O; hPhe = N[C@@H](CCc1ccccc1)C(=O)O; αMeF = C[C@](N)(Cc1ccccc1)C(=O)O; Tic = O=C(O)[C@@H]1Cc2ccccc2CN1; β3hF = N[C@H](CC(=O)O)Cc1ccccc1; N(octyl)Gly = CCCCCCCCNCC(=O)O; Nle = CCCC[C@H](N)C(=O)O; Sar = CNCC(=O)O

Molecular target: T1, δ-opioid receptor (DOR) (Homo sapiens, UniProt P41143)
T1 construct: host or cells: cAMP Hunter CHO-K1 OPRD1 Gαi cell line
Assay: DOR agonist cAMP assay (HitHunter cAMP, forskolin-stimulated)
Assay type: cell-based
Description: The HitHunter® cAMP chemiluminescent assay kit (DiscoveRx, Cat# 90-0075 SM25) was used to detect cAMP production in cAMP Hunter™ Gαi cell lines over expressing either Human-ORPM1 (Discoverx, Catalog# 95-0107C2) or Human-ORPD1 (DiscoveRx, Catalog# 95-0108C2). Opioid agonist binding to the Gαi receptors inhibits the intracellular cAMP accumulation induced by forskolin, which activates adenylate cyclase and increases intracellular levels of cAMP.
Cells were cultured in media consisting of Ham's F-12 Nutrient Mix (Life Technologies, Catalog#31765035), 10% FBS (Life Technologies, Catalog# 16140-071), 4 mM GlutaMAX (Life Technologies, Catalog#35050-061), […] (Life Technologies), 100 ug/ml of Penn-Strep (Life Technologies) and 0.5 mg/ml Geneticin (Life Technologies, Catalog# 10131-027). The cultures were maintained at 37° C. under 5% CO2.
In preparation for cAMP assay, the cells were seeded at a density of 300,000 cells/ml in 100 ul of media/well in 96-well microplate. Wells that were designated for cAMP standards were left empty.
Opioid agonist serial dilutions were prepared in separate dilution plate (11-point series of 3× (3-fold) dilution) in Cell Assay buffer, including 3× forskolin for Gαi target. For Hunter CHO-K1 OPRM1 or CHO-K1 OPRD1 Gαi Cell Lines, the final forskolin concentration was 20 uM.
15 ul of each 3× opioid agonist serial dilution was added in the presence of forskolin in duplicate to the designated wells. The final concentration of each dilution was at 3× of the final screening concentration. The assay plate was incubated for 30 min, at 37° C. under 5% CO2.
Cellular cAMP concentrations were measured using the HitHunter cAMP Assay kit following the manufacturer's protocol. HitHunter cAMP assay is a gain-of-signal competitive immunoassay based on Enzyme Fragment Complementation (EFC) technology. The kit uses β-galactosidase (β-gal) enzyme split into Enzyme Donor (ED) and Enzyme Acceptor (EA). The cellular cAMP and ED-labelled cAMP compete for anti-cAMP antibody. […] When cellular cAMP level is high, it competes for the anti-cAMP antibody, thereby releasing ED-cAMP to complement with EA to produce a luminescent signal. The amount of signal is directly proportional to the amount of cAMP in cells and can be quantified using cAMP standards. The assay plates were read using a PerkinElmer Envision instrument to detect the chemiluminescence signal in each well (luminescence reader at 0.1 to 1 second/well). Data analysis was performed using Graphpad Prism 7.EC50 was calculated by nonlinear regression, using the four-parameter hill equation.

T1 sequence (P41143 whole entry): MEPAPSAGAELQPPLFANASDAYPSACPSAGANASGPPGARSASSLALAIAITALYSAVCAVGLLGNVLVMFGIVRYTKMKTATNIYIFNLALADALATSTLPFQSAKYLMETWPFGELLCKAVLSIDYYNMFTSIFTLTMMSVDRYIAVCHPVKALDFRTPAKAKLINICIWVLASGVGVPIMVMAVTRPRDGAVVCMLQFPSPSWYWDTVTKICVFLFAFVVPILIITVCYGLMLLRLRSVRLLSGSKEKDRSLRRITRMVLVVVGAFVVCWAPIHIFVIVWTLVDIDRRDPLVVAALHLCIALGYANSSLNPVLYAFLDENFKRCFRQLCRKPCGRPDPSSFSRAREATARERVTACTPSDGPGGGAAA

Row | Compound | EC50 [nM]
1 | Cc1cc(C(N)=O)cc(C)c1C[C@H](N)C(=O)N[C@H](CC(=O)O)C(=O)NCC(=O)N[C@H](CC(=O)N(C)CC(N)=O)Cc1ccccc1 [compound 77] | < 1
2 | Cc1cc(O)cc(C)c1C[C@H](N)C(=O)N[C@@H](C)C(=O)NCC(=O)N[C@H](CC(=O)N(C)CC(=O)O)Cc1ccccc1 [compound 88] | 10 to 50
3 | Cc1cc(O)cc(C)c1C[C@H](N)C(=O)N(C)[C@@H](CCCNC(=N)N)C(=O)NCC(=O)N[C@H](CC(=O)N(C)CC(N)=O)Cc1ccccc1 [compound 91] | 50 to 200
4 | Cc1cc(O)cc(C)c1C[C@H](N)C(=O)N[C@H](C)C(=O)NCC(=O)N[C@H](CC(=O)N(CC(N)=O)C1CCCCC1)Cc1ccccc1 [compound 123] | < 1
5 | CCCC[C@@H](C(=O)O)N(C)C(=O)C[C@H](Cc1ccccc1C)NC(=O)CNC(=O)[C@@H](C)NC(=O)[C@@H](N)Cc1c(C)cc(C(N)=O)cc1C [compound 163] | 1 to 10
6 | Cc1cc(O)cc(C)c1C[C@H](N)C(=O)N[C@H](CCCNC(=N)N)C(=O)N[C@@H](Cc1ccccc1)C(=O)N[C@H](C(N)=O)C(C)C [compound 30] (H-[Dmt][dR]FV-NH2) | 1 to 10
7 | COc1ccc(C[C@H](NC(=O)[C@H](Cc2ccccc2)NC(=O)[C@@H](CCCNC(=N)N)NC(=O)[C@@H](N)Cc2c(C)cc(O)cc2C)C(N)=O)cc1OC [compound 17] (H-[Dmt][dR]F[Phe(3,4-(OMe)2)]-NH2) | 1 to 10
8 | CC(=O)N[C@@H](Cc1c(C)cc(O)cc1C)C(=O)N[C@H](C)C(=O)NCC(=O)N[C@H](CC(=O)N(C)CC(N)=O)Cc1ccccc1 [compound 86] | 10 to 50
9 | Cc1cc(O)cc(C)c1C[C@H](N)C(=O)N[C@H](CCCNC(=N)N)C(=O)N[C@@H](Cc1ccccc1)C(=O)N(C)[C@H](Cc1ccccc1)C(N)=O [compound 14] (H-[Dmt][dR]F[dNMeF]-NH2) | 10 to 50
10 | Cc1cc(O)cc(C)c1C[C@H](N)C(=O)N[C@H](CCCNC(=N)N)C(=O)N[C@@H](Cc1ccc(C(C)(C)C)cc1)C(=O)N(C)CC(N)=O [compound 24] (H-[Dmt][dR][Phe(4-tBu)][Sar]-NH2) | > 200
11 | C[C@@H](NC(=O)[C@@H](N)Cc1ccc(O)cc1)C(=O)NCC(=O)N[C@H](CC(=O)N(C)CC(N)=O)Cc1ccccc1 [compound 62] | 1 to 10
12 | Cc1cc(O)cc(C)c1C[C@H](N)C(=O)N[C@H](C)C(=O)NCC(=O)N1Cc2ccccc2C[C@H]1C(=O)NCC(N)=O [compound 40] | 10 to 50
13 | CCCCCCCCN(CC(N)=O)C(=O)[C@H](Cc1ccccc1)NC(=O)[C@@H](CCCNC(=N)N)NC(=O)[C@@H](N)Cc1c(C)cc(O)cc1C [compound 27] (H-[Dmt][dR]F[N(octyl)Gly]-NH2) | 50 to 200
14 | Cc1cc(O)cc(C)c1C[C@H](N)C(=O)N[C@H](CCCNC(=N)N)C(=O)N(C)CC(=O)N[C@@H](Cc1c[nH]c2ccccc12)C(N)=O [compound 35] (H-[Dmt][dR][Sar]W-NH2) | > 200
15 | Cc1cc(O)cc(C)c1C[C@H](N)C(=O)N[C@H](CCCNC(=N)N)C(=O)N[C@@H](Cc1ccc(-c2ccccc2)cc1)C(=O)N(C)CC(N)=O [compound 23] (H-[Dmt][dR][Bip][Sar]-NH2) | < 1
16 | Cc1cc(O)cc(C)c1C[C@H](N)C(=O)N[C@H](C)C(=O)NCC(=O)N[C@H](CC(=O)N(CC(N)=O)CC1CCCCC1)Cc1ccccc1 [compound 119] | 1 to 10
17 | Cc1cc(O)cc(C)c1C[C@H](N)C(=O)N[C@H](CCCNC(=N)N)C(=O)N[C@@H](Cc1ccccc1)C(=O)N[C@@H](Cc1ccc(F)cc1)C(N)=O [compound 16] (H-[Dmt][dR]F[Phe(4-F)]-NH2) | 10 to 50
18 | Cc1cc(O)cc(C)c1C[C@H](N)C(=O)N[C@H](CCCNC(=N)N)C(=O)N[C@@H](Cc1ccccc1)C(=O)N[C@@](C)(Cc1ccccc1)C(N)=O [compound 15] (H-[Dmt][dR]F[αMeF]-NH2) | 1 to 10
19 | Cc1cc(O)cc(C)c1C[C@H](N)C(=O)N[C@H](CCCNC(=N)N)C(=O)N[C@@H](Cc1ccccc1)C(=O)N[C@@H](CCc1ccccc1)C(N)=O [compound 18] (H-[Dmt][dR]F[hPhe]-NH2) | 1 to 10
20 | Cc1cc(O)cc(C)c1C[C@H](N)C(=O)N[C@H](CCCNC(=N)N)C(=O)NCC(=O)N[C@H](C(N)=O)C(c1ccccc1)c1ccccc1 [compound 33] (H-[Dmt][dR]G[Dip]-NH2) | > 200

Row | Compound | EC50 [nM]
21 | Cc1cc(O)cc(C)c1C[C@H](N)C(=O)N[C@H](C)C(=O)NCC(=O)N[C@@H](CCc1ccccc1)C(=O)N(C)CC(N)=O [compound 47] | 1 to 10
22 | Cc1cc(O)cc(C)c1C[C@H](N)C(=O)N[C@H](CCCNC(=N)N)C(=O)N[C@H](C(=O)N(C)CC(N)=O)C(c1ccccc1)c1ccccc1 [compound 26] (H-[Dmt][dR][Dip][Sar]-NH2) | > 200
23 | Cc1cc(O)cc(C)c1C[C@H](N)C(=O)N[C@H](CCCNC(=N)N)C(=O)N[C@@H](Cc1ccccc1)C(=O)N[C@@H](CC(C)C)C(N)=O [compound 29] (H-[Dmt][dR]FL-NH2) | 10 to 50
24 | Cc1cc(O)cc(C)c1C[C@H](N)C(=O)N[C@H](C)C(=O)N(C)CC(=O)N[C@H](CC(=O)N(C)CC(N)=O)Cc1ccccc1 [compound 64] | 50 to 200
25 | Cc1cc(O)cc(C)c1C[C@H](N)C(=O)N[C@H](C)C(=O)N[C@H](C(=O)N[C@H](CC(=O)N(C)CC(N)=O)Cc1ccccc1)C(C)C [compound 69] (H-[Dmt][dA]V[β3hF][Sar]-NH2) | 50 to 200
26 | Cc1cc(O)cc(C)c1C[C@H](N)C(=O)N[C@H](C)C(=O)NCC(=O)N1Cc2ccccc2C[C@H]1C(=O)N(C)CC(N)=O [compound 107] | 10 to 50
27 | CCCCCN(CC(N)=O)C(=O)C[C@H](Cc1ccccc1)NC(=O)CNC(=O)[C@@H](C)NC(=O)[C@@H](N)Cc1c(C)cc(O)cc1C [compound 124] | < 1
28 | CCCC[C@H](NC(=O)[C@H](Cc1c[nH]c2ccccc12)NC(=O)[C@@H](CCCNC(=N)N)NC(=O)[C@@H](N)Cc1c(C)cc(O)cc1C)C(N)=O [compound 31] (H-[Dmt][dR]W[Nle]-NH2) | 10 to 50
29 | Cc1cc(O)cc(C)c1C[C@H](N)C(=O)N[C@H](CCCNC(=N)N)C(=O)N1Cc2ccccc2C[C@H]1C(=O)N(C)CC(N)=O [compound 21] (H-[Dmt][dR][Tic][Sar]-NH2) | > 200
30 | Cc1cc(O)cc(C)c1C[C@H](N)C(=O)N[C@H](C)C(=O)NCC(=O)N[C@@H](Cc1ccc(C#N)cc1)C(=O)NCC(N)=O [compound 39] | < 1
31 | CCCC[C@H](NC(=O)[C@H](Cc1ccccc1)NC(=O)[C@@H](CCCN=C(N)N)NC(=O)[C@@H](N)Cc1c(C)cc(O)cc1C)C(N)=O [compound 28] (H-[Dmt][dR]F[Nle]-NH2) | 10 to 50
32 | CCCCCCCCN(CC(N)=O)C(=O)C[C@H](Cc1ccccc1)NC(=O)CNC(=O)[C@@H](C)NC(=O)[C@@H](N)Cc1c(C)cc(O)cc1C [compound 115] | 10 to 50
33 | Cc1cc(O)cc(C)c1C[C@H](N)C(=O)N[C@H](C)C(=O)NCC(=O)N[C@@H](Cc1ccc(Cl)c(Cl)c1)C(=O)NCC(N)=O [compound 41] | < 1
34 | Cc1cc(O)cc(C)c1C[C@H](N)C(=O)N[C@H](CCCNC(=N)N)C(=O)NCC(=O)N[C@@H](Cc1c[nH]c2ccccc12)C(N)=O [compound 34] (H-[Dmt][dR]GW-NH2) | 10 to 50
35 | Cc1cc(O)cc(C)c1C[C@H](N)C(=O)N[C@H](C)C(=O)NCC(=O)N[C@H](CC(=O)N(CCc1ccccc1)CC(N)=O)Cc1ccccc1 [compound 121] | < 1
36 | Cc1cc(O)cc(C)c1C[C@H](N)C(=O)N[C@H](CCCNC(=N)N)C(=O)N[C@@H](Cc1ccc(Cl)c(Cl)c1)C(=O)N(C)CC(N)=O [compound 22] (H-[Dmt][dR][Phe(3,4-Cl2)][Sar]-NH2) | 10 to 50
37 | COc1ccc(C[C@H](NC(=O)[C@@H](CCCNC(=N)N)NC(=O)[C@@H](N)Cc2c(C)cc(O)cc2C)C(=O)N(C)CC(N)=O)cc1OC [compound 25] (H-[Dmt][dR][Phe(3,4-(OMe)2)][Sar]-NH2) | > 200
38 | Cc1cc(O)cc(C)c1C[C@H](N)C(=O)N[C@H](CCCNC(=N)N)C(=O)N[C@@H](Cc1ccccc1)C(=O)N[C@H](C(N)=O)C(c1ccccc1)c1ccccc1 [compound 36] (H-[Dmt][dR]F[Dip]-NH2) | 10 to 50
39 | Cc1cc(C(N)=O)cc(C)c1C[C@H](N)C(=O)N(C)[C@@H](CCCNC(=N)N)C(=O)NCC(=O)N[C@H](CC(=O)N(C)CC(N)=O)Cc1ccccc1 [compound 78] | 50 to 200
40 | Cc1cc(O)cc(C)c1C[C@H](N)C(=O)N[C@H](C)C(=O)NCC(=O)N[C@H](CC(=O)N(CCC(=O)O)CC(N)=O)Cc1ccccc1 [compound 120] | < 1
